In patent US20110275692A1, “SUBSTITUTED GAMMA LACTAMS AS THERAPEUTIC AGENTS” (ALLERGAN, INC., priority 2005, published 2011):

Assays:
[1] = biological target: T1, EP2 (Homo sapiens, UniProt P43116); test: EP2 cAMP; format: cell-based
[2] = biological target: T2, hEP2/Gqs5 (Homo sapiens, UniProt P43116); test: EP2 FLIPR calcium signal; format: cell-based; conditions: HEK-293(EBNA) cells
T2 construct: expressed in transfected cells; host or cells: HEK-293(EBNA)
Experimental: (§1) HEK-293(EBNA) cells, stably expressing one type or subtype of recombinant human prostaglandin receptors (prostaglandin receptors expressed: hDP/Gqs5; hEP1; hEP2/Gqs5; hEP3A/Gqi5; hER4/Gqs5; hFP; hIP; hTP), were cultured in 100 mm culture dishes in high-glucose DMEM medium containing 10% fetal bovine serum, 2 mM 1-glutamine, 250 μg/ml geneticin (G418) and 200 μg/ml hygromycin B as selection markers, and 100 units/ml penicillin G, 100 μg/ml streptomycin and 0.25 μg/ml amphotericin B.
(§2) Cells were seeded at a density of 5×10^4 cells per well in Biocoat® Poly-D-lysine-coated black-wall, clear-bottom 96-well plates (Becton-Dickinson) and allowed to attach overnight in an incubator at 37° C. Cells were then washed two times with HBSS-HEPES buffer (Hanks Balanced Salt Solution without bicarbonate and phenol red, 20 mM HEPES, pH 7.4) using a Denley Cellwash plate washer (Labsystems). […]
(§3) Cells were excited with an Argon laser at 488 nm, and emission was measured through a 510-570 nm bandwidth emission filter (FLIPR™, Molecular Devices, Sunnyvale, Calif.). […] The peak increase in fluorescence intensity was recorded for each well. […] The peak fluorescence change in each drug-containing well was then expressed relative to the controls. […]

[3] = biological target: T1, EP2; test: EP2 competition binding ([3H]PGE2); parameters: expressed in transfected cells; host or cells: HEK 293; conditions: HEK 293 cells stably expressing human EP2, [3H]PGE2
Experimental: Competition binding experiments were performed in a medium containing Hank's balanced salt solution, Hepes 20 mM, pH 7.3, membranes (˜60 μg protein) or 2×10^5 cells from HEK 293 cells stably expressing human EP2 receptors, [^3H]PGE2 (10 nM) and various concentrations of test compounds in a total volume of […] Reaction mixtures were incubated at 23° C. for 60 min, and were filtered over Whatman GF/B filters under vacuum. Filters were washed three times with 5 ml ice-cold buffer containing 50 mM Tris/HCl (pH 7.3). Non-specific binding was estimated in the presence of excess unlabeled PGE2 (10 μM). Binding data fitted to the binding model for a single class of binding sites, using nonlinear regression analysis. IC50 values thus obtained were converted to Ki using the equation of Ki=(IC50/(1+[L]/KD) where [L] represents PGE2 concentration (10 nM) and KD the dissociation constant for [^3H]PGE2 at human EP2 receptors (40 nM). […]
The cell homogenate was centrifuged at 19000 r.p.m. for 20 min at 4° C. using a Beckman Ti-60 rotor. The resultant pellet was resuspended in TME buffer to give a final 1 mg/ml protein concentration, as determined by Biorad assay. […]
(§4) [^3H-]PGE2 (specific activity 180 Ci mmol) was used as the radioligand for EP receptors. […] 17-phenyl PGF2α and non-specific binding determined with 10^−5M of unlabeled PGE2, or 17-phenyl PGF2α, according to receptor subtype studied.

[4] = biological target: T3, hEP3A/Gqi5 (Homo sapiens, UniProt P43115); test: Other receptors: hEP3A FLIPR; format: cell-based
T3 construct: expressed in transfected cells; host or cells: HEK-293(EBNA)
T3 sequence (P43115 1-390): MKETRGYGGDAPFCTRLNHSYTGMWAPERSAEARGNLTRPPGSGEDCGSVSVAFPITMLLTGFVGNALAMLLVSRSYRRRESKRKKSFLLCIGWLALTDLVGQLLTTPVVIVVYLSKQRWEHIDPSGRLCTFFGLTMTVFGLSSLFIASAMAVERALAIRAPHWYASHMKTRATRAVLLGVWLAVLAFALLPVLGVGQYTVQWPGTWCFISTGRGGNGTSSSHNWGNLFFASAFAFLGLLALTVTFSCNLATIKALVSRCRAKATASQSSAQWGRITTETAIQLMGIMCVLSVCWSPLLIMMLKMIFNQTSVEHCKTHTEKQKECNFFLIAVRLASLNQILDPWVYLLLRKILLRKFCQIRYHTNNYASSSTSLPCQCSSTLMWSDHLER
Experimental: as §1, §2, §3

[5] = biological target: T4, EP4 receptors (Homo sapiens, UniProt P35408); test: EP4 radioligand binding ([3H]PGE2)
T4 construct: expressed in transfected cells; host or cells: HEK-293
T4 sequence (P35408 whole entry): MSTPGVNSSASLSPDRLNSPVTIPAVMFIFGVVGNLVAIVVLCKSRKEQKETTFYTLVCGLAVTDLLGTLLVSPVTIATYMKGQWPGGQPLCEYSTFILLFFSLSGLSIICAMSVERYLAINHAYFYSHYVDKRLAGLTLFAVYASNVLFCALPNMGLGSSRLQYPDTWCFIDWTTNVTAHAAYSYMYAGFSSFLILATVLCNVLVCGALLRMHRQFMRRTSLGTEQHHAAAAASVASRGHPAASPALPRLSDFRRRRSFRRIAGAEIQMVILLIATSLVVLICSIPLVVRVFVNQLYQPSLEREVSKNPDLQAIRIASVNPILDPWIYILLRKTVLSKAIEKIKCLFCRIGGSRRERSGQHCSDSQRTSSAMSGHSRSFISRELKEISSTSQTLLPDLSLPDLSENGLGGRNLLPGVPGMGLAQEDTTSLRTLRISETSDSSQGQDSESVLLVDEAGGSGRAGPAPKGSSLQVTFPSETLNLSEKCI
Experimental: HEK-293 cells stably expressing the human or feline FP receptor, or EP1, EP2, or EP4 receptors were washed with TME buffer, scraped from the bottom of the flasks, and homogenized for 30 sec using a Brinkman PT 10/35 polytron. TME buffer was added to achieve a final 40 ml volume in the centrifuge tubes (the composition of TME is 100 mM TRIS base, 20 mM MgCl2, […]; 10N HCl is added to achieve a pH of 7.4).
The cell homogenate was centrifuged at 19000 r.p.m. for 20 min at 4° C. using a Beckman Ti-60 rotor. The resultant pellet was resuspended in TME buffer to give a final 1 mg/ml protein concentration, as determined by Biorad assay. Radioligand binding competition assays vs. [^3H-]17-phenyl PGF2α (5 nM) were performed in a 100 μl volume for 60 min. Binding reactions were started by adding plasma membrane fraction. The reaction was terminated by the addition of 4 ml ice-cold TRIS-HCl buffer and rapid filtration through glass fiber GF/B filters using a Brandel cell harvester. The filters were washed 3 times with ice-cold buffer and oven dried for one hour.
as §4, with “receptors. [^3H] 17-phenyl PGF2α was employed for FP receptor binding studies.” for “receptors.”

T1 sequence (P43116 whole entry): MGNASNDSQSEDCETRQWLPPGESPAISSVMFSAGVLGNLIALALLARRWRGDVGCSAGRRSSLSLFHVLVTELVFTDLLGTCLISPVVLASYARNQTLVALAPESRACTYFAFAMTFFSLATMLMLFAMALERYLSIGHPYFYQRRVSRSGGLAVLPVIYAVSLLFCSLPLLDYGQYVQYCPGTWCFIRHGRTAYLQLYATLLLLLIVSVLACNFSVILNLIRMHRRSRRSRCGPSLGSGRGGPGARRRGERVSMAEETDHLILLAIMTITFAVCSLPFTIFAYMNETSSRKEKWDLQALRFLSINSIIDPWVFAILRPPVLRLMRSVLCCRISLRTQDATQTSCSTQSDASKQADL
T2 sequence (P43116 whole entry): as above

EC50 [1]: 15 nM | EC50 [2]: 226 nM | Ki [3]: 1380 nM | EC50 [4]: 1410 nM | Ki [5]: > 10000 nM
Compound: CCCCCC(O)c1ccc(N2C(=O)CC[C@@H]2C=CCc2ccc(C(=O)O)s2)cc1 (stereo partly drawn) [Example 16, 5-((E and Z)-3-{(R)-1-[4-(1-Hydroxy-hexyl)-phenyl]-5-oxo-pyrrolidin-2-yl}-allyl)-thiophene-2-carboxylic acid]
